Laboratory results from PMC8161026, “Synthesis and Anticancer Activity Evaluation of 5-[2-Chloro-3-(4-nitrophenyl)-2-propenylidene]-4-thiazolidinones” (Molecules, 2021).

Columns and labels:
60 tumor cell lines = assay: NCI60 full panel MG_MID; settings: for GI50 / CC50: Homo sapiens; for GI50: read-out: 60 lines MG_MID, GI50; for CC50: read-out: 60 lines MG_MID, LC50; for 60 lines MG_MID, TGI: mean over all cell lines
Method: At the first stage of biological activity study, the antitumor activity screening of the selected compounds 2b, 2c, 2f, 2h, and 2j was performed according to the NCI DTP (USA) standard protocol at the concentrations ranging from 10^−4 to 10^−8 M toward 60 tumor cell lines. The percentage of growth was evaluated spectrophotometrically versus controls not treated with test agents after 48 h exposure and using SRB protein assay to estimate cell viability or growth. Dose–response parameters were calculated for each cell line: GI50—molar concentration of the compound that inhibits 50% net cell growth; TGI—molar concentration of the compound leading to the total inhibition; and LC50—molar concentration of the compound leading to 50% net cell death. Furthermore, mean graph midpoints (MG_MID) were calculated for each of the parameters, giving an average activity parameter over all cell lines for the tested compound. For the MG_MID calculation, insensitive cell lines were included with the highest concentration tested.
Primary anticancer assay was performed on a panel of approximately sixty human tumor cell lines derived from nine neoplastic diseases, in accordance with the protocol of the Drug Evaluation Branch, National Cancer Institute, Bethesda. Tested compounds were added to the culture at a single concentration (10^−5 M) and the cultures were incubated for 48 h. End point determinations were made with a protein binding dye, sulforhodamine B (SRB). […] The percentage growth was evaluated spectrophotometrically versus controls not treated with test agents.
Dose–response parameters (GI50, TGI, LC50) were calculated for each compound. […] The drug concentration resulting in total growth inhibition (TGI) was calculated from Ti = Tz. The LC50 (concentration of drug resulting in a 50% reduction in the measured protein at the end of the drug treatment as compared to that at the beginning) indicating a net loss of cells following treatment was calculated from [(Ti − Tz)/Tz] × 100 = −50 (2). Values were calculated for each of these parameters if the level of activity was reached; however, if the effect was not reached or was excessive, the value for that parameter was expressed as more or less than the maximum or minimum concentration tested.

MOLT-4 [1] = settings: for TI (Therapeutic Index): GI50 (normal blood lymphocyte)/GI50 (MOLT-4); for TGI: MOLT-4 (Leukemia), 48 h, SRB
HOP-62 [2] = settings: HOP-62 (Non-Small Cell Lung Cancer), 48 h, SRB
MOLT-4 [3] = assay: cells; settings: Homo sapiens, MOLT-4, 48 h; for CC50: read-out: LC50
DU-145 = DU-145 (Prostate Cancer), 48 h, SRB
T-47D = T-47D (Breast Cancer), 48 h, SRB
RPMI-8226 = assay: cells; settings: Homo sapiens, RPMI-8226, 48 h; for CC50: read-out: LC50
SR = assay: cells; settings: Homo sapiens, 48 h; for CC50: read-out: LC50
A549/ATCC = assay: cells; settings: Homo sapiens, A549, 48 h; for CC50: read-out: LC50
HOP-62 [4] = assay: cells; settings: Homo sapiens, HOP-62, 48 h; for CC50: read-out: LC50
HCT-116 = assay: cells; settings: Homo sapiens, HCT-116, 48 h; for CC50: read-out: LC50
U251 = assay: cells; settings: Homo sapiens, U-251, 48 h; for CC50: read-out: LC50
HCT-15 = assay: NCI DTP 60 cell line screen, SRB; settings: for TGI: HCT-15 (Colon Cancer), 48 h, SRB; for GI50 / CC50: Homo sapiens, HCT-15, 48 h; for CC50: read-out: LC50
SF-268 = assay: NCI DTP 60 cell line screen, SRB; settings: for GI50 / CC50: Homo sapiens, SF-268, 48 h; for CC50: read-out: LC50; for TGI: SF-268 (CNS Cancer), 48 h, SRB
SF-295 = assay: NCI DTP 60 cell line screen, SRB; settings: for GI50 / CC50: Homo sapiens, SF-295, 48 h; for CC50: read-out: LC50; for TGI: SF-295 (CNS Cancer), 48 h, SRB
SNB-19 = assay: NCI DTP 60 cell line screen, SRB; settings: for GI50 / CC50: Homo sapiens, SNB-19, 48 h; for CC50: read-out: LC50; for TGI: SNB-19 (CNS Cancer), 48 h, SRB
MALME-3M = assay: NCI DTP 60 cell line screen, SRB; settings: 48 h; for GI50 / CC50: Homo sapiens, Malme-3M; for CC50: read-out: LC50; for TGI: MALME-3M (Melanoma), SRB
IGROV1 = assay: NCI DTP 60 cell line screen, SRB; settings: for GI50 / CC50: Homo sapiens, IGROV-1, 48 h; for CC50: read-out: LC50; for TGI: IGROV1 (Ovarian Cancer), 48 h, SRB
OVCAR-4 = assay: NCI DTP 60 cell line screen, SRB; settings: for GI50 / CC50: Homo sapiens, OVCAR-4, 48 h; for CC50: read-out: LC50; for TGI: OVCAR-4 (Ovarian Cancer), 48 h, SRB
MDA-MB-435 = assay: NCI DTP 60 cell line screen, SRB
SK-MEL-2 [5] = settings: SK-MEL-2 (Melanoma), 48 h, SRB
SK-MEL-2 [6] = assay: cells; settings: Homo sapiens, SK-MEL-2, 48 h
CCRF-CEM = assay: NCI DTP 60 cell line screen, SRB; settings: 48 h

O=C1/C(=C/C(Cl)=C/c2ccc([N+](=O)[O-])cc2)SC(=S)N1c1ccc(O)cc1 [Compound 2f, 5-[(Z,2Z)-2-Chloro-3-(4-nitrophenyl)-2-propenylidene]-3-(4-hydroxyphenyl)-2-thioxo-4-thiazolidinone]
GI50 (60 tumor cell lines): 2.8 µM | CC50 (60 tumor cell lines): 80.8 µM | 60 lines MG_MID, TGI (60 tumor cell lines): 32.3 µM | TI (Therapeutic Index) (HL-60(TB); GI50 (normal blood lymphocyte)/GI50 (HL-60(TB))): >206.19 | TGI (HL-60(TB); HL-60(TB) (Leukemia), 48 h, SRB): 4.48 µM | TI (Therapeutic Index) (MOLT-4 [1]): >257.07 | TGI (MOLT-4 [1]): > 100 µM | TGI (HOP-62 [2]): 5.22 µM | GI50 (MOLT-4 [3]): 0.389 µM | CC50 (MOLT-4 [3]): > 100 µM | TGI (DU-145): 5.81 µM | TGI (T-47D): 7.71 µM | GI50 (RPMI-8226): < 0.01 µM | CC50 (RPMI-8226): > 100 µM | GI50 (SR): 0.01 µM | CC50 (SR): > 100 µM | GI50 (A549/ATCC): 2.25 µM | CC50 (A549/ATCC): > 100 µM | GI50 (HOP-62 [4]): 2.61 µM | CC50 (HOP-62 [4]): 11.6 µM | GI50 (HCT-116): 1.27 µM | CC50 (HCT-116): 6.92 µM | GI50 (U251): 0.368 µM | CC50 (U251): 38.9 µM | TGI (HCT-15): > 100 µM | GI50 (HCT-15): 0.409 µM | CC50 (HCT-15): > 100 µM | GI50 (SF-268): 2.55 µM | CC50 (SF-268): > 100 µM | TGI (SF-268): 34.5 µM | GI50 (SF-295): 2.26 µM | CC50 (SF-295): > 100 µM | TGI (SF-295): 13.8 µM | GI50 (SNB-19): 10 µM | CC50 (SNB-19): 97.5 µM | TGI (SNB-19): 32.0 µM | GI50 (MALME-3M): 6.53 µM | CC50 (MALME-3M): 94.5 µM | TGI (MALME-3M): 27.6 µM | GI50 (IGROV1): 1.63 µM | CC50 (IGROV1): > 100 µM | TGI (IGROV1): 6.13 µM | GI50 (OVCAR-4): 2.63 µM | CC50 (OVCAR-4): > 100 µM | TGI (OVCAR-4): > 100 µM | GI50 (MDA-MB-435; Homo sapiens, MDA-MB-435, 48 h): 3.5 µM | CC50 (MDA-MB-435; Homo sapiens, MDA-MB-435, 48 h, read-out: LC50): > 100 µM | TGI (MDA-MB-435; MDA-MB-435 (Breast Cancer), 48 h, SRB): 7.71 µM

O=C(O)C(Cc1ccccc1)N1C(=O)/C(=C/C(Cl)=C/c2ccc([N+](=O)[O-])cc2)SC1=S (stereo not shown) [Compound 2j, 2-{5-[(Z,2Z)-2-Chloro-3-(4-nitrophenyl)-2-propenylidene]-4-oxo-2-thioxothiazolidin-3-yl}-3-phenylpropanoic acid]
GI50 (60 tumor cell lines): 4.09 µM | CC50 (60 tumor cell lines): 73.9 µM | 60 lines MG_MID, TGI (60 tumor cell lines): 40.6 µM | TI (Therapeutic Index) (MOLT-4 [1]): 15.59 | TGI (MOLT-4 [1]): > 100 µM | TGI (HOP-62 [2]): 6.75 µM | TGI (SK-MEL-2 [5]): 4.50 µM | GI50 (MOLT-4 [3]): 3.14 µM | CC50 (MOLT-4 [3]): > 100 µM | TGI (DU-145): 4.56 µM | TGI (T-47D): 3.71 µM | GI50 (RPMI-8226): 3.22 µM | CC50 (RPMI-8226): > 100 µM | GI50 (SR): 2.45 µM | CC50 (SR): > 100 µM | GI50 (A549/ATCC): 3.46 µM | CC50 (A549/ATCC): > 100 µM | GI50 (HOP-62 [4]): 2.31 µM | CC50 (HOP-62 [4]): > 100 µM | GI50 (HCT-116): 2.01 µM | CC50 (HCT-116): 56.7 µM | GI50 (U251): 1.72 µM | CC50 (U251): 7.21 µM | GI50 (SK-MEL-2 [6]): 1.87 µM | CC50 (SK-MEL-2 [6]; read-out: LC50): > 100 µM | TGI (CCRF-CEM; CCRF-CEM (Leukemia), SRB): > 100 µM | GI50 (CCRF-CEM; Homo sapiens, CCRF-CEM): 2.92 µM | CC50 (CCRF-CEM; Homo sapiens, CCRF-CEM, read-out: LC50): > 100 µM | TGI (HCT-15): 4.58 µM | GI50 (HCT-15): 1.92 µM | CC50 (HCT-15): > 100 µM | GI50 (SF-268): 2.21 µM | CC50 (SF-268): > 100 µM | TGI (SF-268): > 100 µM | GI50 (SF-295): 2.59 µM | CC50 (SF-295): > 100 µM | TGI (SF-295): 7.85 µM | GI50 (SNB-19): 1.85 µM | CC50 (SNB-19): > 100 µM | TGI (SNB-19): > 100 µM | GI50 (MALME-3M): 2.13 µM | CC50 (MALME-3M): > 100 µM | TGI (MALME-3M): 4.82 µM | GI50 (IGROV1): 2.99 µM | CC50 (IGROV1): > 100 µM | TGI (IGROV1): > 100 µM | GI50 (OVCAR-4): 3.21 µM | CC50 (OVCAR-4): > 100 µM | TGI (OVCAR-4): > 100 µM
